Data from ChEMBL document CHEMBL5346896, “Development of indolealkylamine derivatives as potential multi-target agents for COVID-19 treatment” (Eur J Med Chem, 2023).
pIC50: −log10 of the molar value.

Test system: SARS-CoV-2
Assay: Antiviral activity against SARS-CoV-2 spike pseudotyped lentivirus infected in HEK293 cells expressing human ACE2 assessed as inhibition of viral entry into cells preincubated with cell for 1 hrs followed by viral infection for 1 hrs and further replaced with fresh medium and measured 48 hrs post transduction by luminescence based luciferase reporter assay
Format: functional, organism-based, HEK293T
Conditions: Severe acute respiratory syndrome coronavirus 2, HEK-293T

| Structure (SMILES) | pIC50 |
| --- | --- |
| COc1ccc2[nH]c(C(O)c3ccc(Cl)cc3)c(CCNC(C)=O)c2c1 (configuration not stated) | ~6.00 |
| COC(=O)NCCc1c(C(O)c2ccccc2)[nH]c2ccc(OC)cc12 (configuration not stated) | ~6.00 |
